Measurements published in PubChem BioAssay AID330 (DTP/NCI, 2004).
Several values for one entry are separate records, joined by “and”; a condition that tells them apart may be missing. Equal entries are not always repeated. Inconclusive results and toxic doses are left out. Rule for the calls: active = survival T/C of 150% or more; inactive = T/C below 125% in these data.

Tested on: P388 leukemia ip, CD2F1 mice, survival T/C
Assay: NCI In Vivo Anticancer Drug Screen. Data for tumor model P388 Leukemia (intraperitoneal) in CD2F1 (CDF1) mice
Conditions: endpoint: median survival time, higher = longer survival
How it was run: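 Mice carrying the transplanted tumor received test compound or vehicle. Survival was recorded in each group, and the value is the treated-group measurement divided by that of the vehicle-treated control group.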

[1] = dose: 50.0 mg/kg/injection, schedule: Q01DX005 (ip), vehicle: Klucel (hydroxypropylcellulose) (HPC)
[2] = dose: 100.0 mg/kg/injection, schedule: Q01DX005 (ip), vehicle: Klucel (hydroxypropylcellulose) (HPC)
[3] = dose: 200.0 mg/kg/injection, schedule: Q01DX005 (ip), vehicle: Klucel (hydroxypropylcellulose) (HPC)
[4] = dose: 100.0 mg/kg/injection, schedule: Q01DX009 (ip), vehicle: saline with Tween-80
[5] = dose: 200.0 mg/kg/injection, schedule: Q01DX009 (ip), vehicle: saline with Tween-80
[6] = dose: 50.0 mg/kg/injection, schedule: Q01DX005 (ip), vehicle: saline with Tween-80
[7] = dose: 100.0 mg/kg/injection, schedule: Q01DX005 (ip), vehicle: saline with Tween-80
[8] = dose: 60.0 mg/kg/injection, schedule: Q01DX005 (ip), vehicle: Klucel (hydroxypropylcellulose) (HPC)
[9] = dose: 50.0 mg/kg/injection, schedule: Q01DX009 (ip), vehicle: Klucel (hydroxypropylcellulose) (HPC)
[10] = dose: 200.0 mg/kg/injection, schedule: Q01DX009 (ip), vehicle: Klucel (hydroxypropylcellulose) (HPC)
[11] = dose: 50.0 mg/kg/injection, schedule: Q01DX009 (ip), vehicle: saline
[12] = dose: 100.0 mg/kg/injection, schedule: Q01DX009 (ip), vehicle: saline
[13] = dose: 200.0 mg/kg/injection, schedule: Q01DX009 (ip), vehicle: saline

Measured: T/C

CSc1nc(NC2OC(COC(C)=O)C(OC(C)=O)C(OC(C)=O)C2OC(C)=O)c(N=C(C)C(C)=O)c(=O)n1C (stereo not drawn)
inactive: dose: 60.0 mg/kg/injection, schedule: Q01DX005 (ip), vehicle: saline with Tween-80 90 % of control | dose: 120.0 mg/kg/injection, schedule: Q01DX005 (ip), vehicle: saline with Tween-80 91 % of control

CC(C)CC(NC(CCC(=O)O)C(=O)O)C(=O)O (stereo not drawn)
inactive: dose: 2.25 mg/kg/injection, schedule: Q01DX005 (ip), vehicle: saline 106 % of control | dose: 4.5 mg/kg/injection, schedule: Q01DX005 (ip), vehicle: saline 106 % of control | dose: 9.0 mg/kg/injection, schedule: Q01DX005 (ip), vehicle: saline 96 % of control | dose: 18.0 mg/kg/injection, schedule: Q01DX005 (ip), vehicle: saline 104 % of control

COc1ccc2[nH]c3c(c(=O)n(C)c(=O)n3C)c2c1
inactive: [1] 92 % of control | [2] 93 % of control | [3] 92 % of control

CN(C)CCCN1c2ccccc2Sc2ccc(C(F)(F)F)cc21
inactive: dose: 12.5 mg/kg/injection, schedule: Q01DX009 (ip), vehicle: saline with Tween-80 123 % of control

Cc1nnc(Cc2ccc([N+](=O)[O-])cc2)c2n[nH]c(C)c12
inactive: dose: 25.0 mg/kg/injection, schedule: Q01DX001 (ip), vehicle: Klucel (hydroxypropylcellulose) (HPC) 104 % of control | dose: 50.0 mg/kg/injection, schedule: Q01DX001 (ip), vehicle: Klucel (hydroxypropylcellulose) (HPC) 102 % of control | dose: 100.0 mg/kg/injection, schedule: Q01DX001 (ip), vehicle: Klucel (hydroxypropylcellulose) (HPC) 109 % of control | dose: 100.0 mg/kg/injection, schedule: Q04DX002 (ip), vehicle: Klucel (hydroxypropylcellulose) (HPC) 90 % of control

c1ccc(Cc2ccccn2)nc1
inactive: [4] 104 % of control | [5] 104 % of control | dose: 400.0 mg/kg/injection, schedule: Q01DX009 (ip), vehicle: saline with Tween-80 95 % of control

O=C(Nc1cccc2ccccc12)ON1C(=O)c2ccccc2C1=O
inactive: dose: 25.0 mg/kg/injection, schedule: Q01DX005 (ip), vehicle: saline with Tween-80 92 % of control | [6] 99 % of control and 113 % of control and 96 % of control | [7] 110 % of control and 119 % of control

CC(=O)N1CN=C2Sc3ccccc3N2C1
inactive: dose: 15.0 mg/kg/injection, schedule: Q01DX005 (ip), vehicle: Klucel (hydroxypropylcellulose) (HPC) 103 % of control | dose: 30.0 mg/kg/injection, schedule: Q01DX005 (ip), vehicle: Klucel (hydroxypropylcellulose) (HPC) 105 % of control | [8] 100 % of control and 104 % of control

CC(=O)CC(c1ccccc1)C(Sc1ccccc1)(Sc1ccccc1)Sc1ccccc1 (stereo not drawn)
inactive: [9] 101 % of control | [10] 93 % of control

O=C(NNC1CCN(Cc2ccccc2)CC1)c1ccccc1
inactive: dose: 10.0 mg/kg/injection, schedule: Q04DX003 (ip), vehicle: saline with Tween-80 100 % of control | dose: 20.0 mg/kg/injection, schedule: Q04DX003 (ip), vehicle: saline with Tween-80 95 % of control

CC(=O)[C-](I)C(C)=O.CC(=O)[C-](I)C(C)=O.CC(=O)[C-](I)C(C)=O.[Ru+3]
inactive: [8] 106 % of control | dose: 120.0 mg/kg/injection, schedule: Q01DX005 (ip), vehicle: Klucel (hydroxypropylcellulose) (HPC) 106 % of control | dose: 240.0 mg/kg/injection, schedule: Q01DX005 (ip), vehicle: Klucel (hydroxypropylcellulose) (HPC) 115 % of control

COC(CCC(C)C1OC23CC(OC(=O)CC(C(C)O)OC(=O)CC(O)(O2)C(C)CC3(C)C)C1C)c1cccc(O)c1 (stereo not drawn)
inactive: dose: 3.12 micrograms/kg/injection, schedule: Q01DX009 (ip), vehicle: saline + Tween-80 + alcohol 101 % of control | dose: 6.25 micrograms/kg/injection, schedule: Q01DX009 (ip), vehicle: saline + Tween-80 + alcohol 107 % of control and 109 % of control and 86 % of control | dose: 12.5 micrograms/kg/injection, schedule: Q01DX009 (ip), vehicle: saline + Tween-80 + alcohol 108 % of control | dose: 25.0 micrograms/kg/injection, schedule: Q01DX009 (ip), vehicle: saline + Tween-80 + alcohol 111 % of control and 117 % of control | dose: 50.0 micrograms/kg/injection, schedule: Q01DX009 (ip), vehicle: saline + Tween-80 + alcohol 115 % of control and 117 % of control

C=C(C)[C@H]1C[C@@H](O)[C@H]2O[C@@]2(C)C1
inactive: [11] 91 % of control | [12] 90 % of control | [13] 102 % of control

CN(C)C(=O)NC1(N(C)C)CC1
inactive: dose: 25.0 mg/kg/injection, schedule: Q01DX009 (ip), vehicle: saline 104 % of control | [11] 100 % of control | [12] 97 % of control

CC1CCN(C(=O)c2cc(Nc3ccnc4cc(Cl)ccc34)ccc2O)CC1
inactive: dose: 100.0 mg/kg/injection, schedule: Q04DX002 (ip), vehicle: saline with Tween-80 99 % of control | dose: 200.0 mg/kg/injection, schedule: Q04DX002 (ip), vehicle: saline with Tween-80 99 % of control | dose: 400.0 mg/kg/injection, schedule: Q04DX002 (ip), vehicle: saline with Tween-80 89 % of control

N#CC1=C(O)NC(O)=C(C#N)C12C(=O)Nc1ccccc12
inactive: [1] 98 % of control | [6] 104 % of control | [2] 101 % of control | [7] 104 % of control | [3] 99 % of control | dose: 200.0 mg/kg/injection, schedule: Q01DX005 (ip), vehicle: saline with Tween-80 104 % of control

CCOC(=O)/C(C#N)=C/C=C1/C=CC=CN1N=C(SC)SC
inactive: dose: 100.0 mg/kg/injection, schedule: Q01DX001 (ip), vehicle: saline with Tween-80 95 % of control | dose: 200.0 mg/kg/injection, schedule: Q01DX001 (ip), vehicle: saline with Tween-80 86 % of control | dose: 400.0 mg/kg/injection, schedule: Q01DX001 (ip), vehicle: saline with Tween-80 87 % of control

CCOP(=O)(OCC)Oc1c(OC)cc(C2OCCO2)cc1OC
inactive: [11] 103 % of control | [12] 103 % of control | [13] 117 % of control

O=c1oc(-c2ccccc2)nc2c1CCCS2
inactive: [1] 100 % of control | [2] 99 % of control and 103 % of control | [3] 103 % of control and 89 % of control

COc1ccc2c(c1)-c1nn(CCO)c(-c3cccnc3)c1CC2
inactive: dose: 100.0 mg/kg/injection, schedule: Q04DX002 (ip), vehicle: DMSO 94 % of control | dose: 200.0 mg/kg/injection, schedule: Q04DX002 (ip), vehicle: DMSO 102 % of control

O=S(=O)(c1ccc(NC(=S)N2CCOCC2)cc1)N1CCCCC1
inactive: [9] 100 % of control | dose: 100.0 mg/kg/injection, schedule: Q01DX009 (ip), vehicle: Klucel (hydroxypropylcellulose) (HPC) 96 % of control | [10] 97 % of control

NC(=S)c1ccc(N)cc1
inactive: dose: 100.0 mg/kg/injection, schedule: Q04DX003 (ip), vehicle: Klucel (hydroxypropylcellulose) (HPC) 100 % of control | dose: 200.0 mg/kg/injection, schedule: Q04DX003 (ip), vehicle: Klucel (hydroxypropylcellulose) (HPC) 106 % of control

O=C(CN1CCCCC1)Nc1cccc(Cl)c1
inactive: dose: 50.0 mg/kg/injection, schedule: Q01DX009 (ip), vehicle: saline with Tween-80 100 % of control | [11] 103 % of control | [4] 100 % of control | [12] 107 % of control | [5] 123 % of control | [13] 120 % of control

CCOC(=O)NCC(C)(c1ccccc1)c1ccccc1
inactive: [11] 87 % of control | [12] 94 % of control | [13] 87 % of control

COC(=O)C1(C)N=C1N(C)C (stereo not drawn)
inactive: dose: 100.0 mg/kg/injection, schedule: Q04DX002 (ip), vehicle: saline 92 % of control | dose: 200.0 mg/kg/injection, schedule: Q04DX002 (ip), vehicle: saline 90 % of control | dose: 400.0 mg/kg/injection, schedule: Q04DX002 (ip), vehicle: saline 93 % of control
